Experimental data from PMC10940605, “Design, synthesis and in vitro anticancer activity of some new lomefloxacin derivatives” (Scientific Reports, 2024).

What was measured:
MOLT-4 = experiment: NCI-60 SRB screen; assay type: cell-based; conditions: Homo sapiens; MOLT-4, 10^–5 Molar; read-out: Percent growth inhibition
786-0 = experiment: NCI-60 SRB screen; assay type: cell-based; conditions: Homo sapiens; 786-0, 10^–5 Molar; read-out: Percent growth inhibition
In short: (§1)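 Percent growth inhibition at 10^−5 M, 48 h. Sulforhodamine B read-out at […] following cold TCA fixation; Tz plates fixed when compound was added.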

CAKI-1 = experiment: NCI-60 SRB screen; assay type: cell-based; conditions: Homo sapiens; CAKI-1, 10^–5 Molar; read-out: Percent growth inhibition
In short: (§2)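 Single-dose screen at 10^−5 M; cells grown in RPMI 1640 with 2 mM L-glutamine and FBS for 24 h, then exposed to compound for 48 h at 37 °C, 5% CO2. TCA-fixed, SRB-stained, absorbance read at […]; percentage growth inhibition calculated against time-zero and control wells.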

CCRF-CEM = experiment: NCI-60 SRB screen; assay type: cell-based; conditions: Homo sapiens, 10^–5 Molar, read-out: Percent growth inhibition
In short: as §2

HOP-62 = experiment: NCI-60 SRB screen; assay type: cell-based; conditions: Homo sapiens; HOP-62, 10^–5 Molar; read-out: Percent growth inhibition
In short: as §2

KM12 = experiment: NCI-60 SRB screen; assay type: cell-based; conditions: Homo sapiens; KM12, 10^–5 Molar; read-out: Percent growth inhibition
In short: as §1

LOX IMVI = experiment: NCI-60 SRB screen; assay type: cell-based; conditions: Homo sapiens, 10^–5 Molar, read-out: Percent growth inhibition
In short: as §1

M14 = experiment: NCI-60 SRB screen; assay type: cell-based; conditions: Homo sapiens; M14, 10^–5 Molar; read-out: Percent growth inhibition
In short: as §2

MCF7 = experiment: NCI-60 SRB screen; assay type: cell-based; conditions: Homo sapiens; MCF7, 10^–5 Molar; read-out: Percent growth inhibition
In short: as §2

MDA-MB-468 = experiment: NCI-60 SRB screen; assay type: cell-based; conditions: Homo sapiens; MDA-MB-468, 10^–5 Molar; read-out: Percent growth inhibition
In short: as §2

NCI-H322M = experiment: NCI-60 SRB screen; assay type: cell-based; conditions: Homo sapiens, 10^–5 Molar, read-out: Percent growth inhibition
In short: as §2

NCI-H460 = experiment: NCI-60 SRB screen; assay type: cell-based; conditions: Homo sapiens; NCI-H460, 10^–5 Molar; read-out: Percent growth inhibition
In short: as §2

NCI-H522 = experiment: NCI-60 SRB screen; assay type: cell-based; conditions: Homo sapiens; NCI-H522, 10^–5 Molar; read-out: Percent growth inhibition
In short: as §2

RXF 393 = experiment: NCI-60 SRB screen; assay type: cell-based; conditions: Homo sapiens, 48 h; RXF 393, 10^–5 Molar; read-out: Percent growth inhibition
In short: as §2

SF-268 = experiment: NCI-60 SRB screen; assay type: cell-based; conditions: Homo sapiens; SF-268, 10^–5 Molar; read-out: Percent growth inhibition
In short: as §1

SF-539 = experiment: NCI-60 SRB screen; assay type: cell-based; conditions: Homo sapiens; SF-539, 10^–5 Molar; read-out: Percent growth inhibition
In short: as §2

SNB-75 = experiment: NCI-60 SRB screen; assay type: cell-based; conditions: Homo sapiens; SNB-75, 10^–5 Molar; read-out: Percent growth inhibition
In short: as §2

SW-620 = experiment: NCI-60 SRB screen; assay type: cell-based; conditions: Homo sapiens; SW-620, 10^–5 Molar; read-out: Percent growth inhibition
In short: as §2

T-47D = experiment: NCI-60 SRB screen; assay type: cell-based; conditions: Homo sapiens, T47D, 10^–5 Molar, read-out: Percent growth inhibition
In short: as §1

UACC-62 = experiment: NCI-60 SRB screen; assay type: cell-based; conditions: Homo sapiens; UACC-62, 10^–5 Molar; read-out: Percent growth inhibition
In short: as §1

UO-31 = experiment: NCI-60 SRB screen; assay type: cell-based; conditions: Homo sapiens; UO-31, 10^–5 Molar; read-out: Percent growth inhibition
In short: as §2

SK-OV-3 = experiment: NCI-60 SRB screen; assay type: cell-based; conditions: Homo sapiens; SK-OV-3, 10^–5 Molar; read-out: Percent growth inhibition
A498 = experiment: NCI-60 SRB screen; assay type: cell-based; conditions: Homo sapiens; A498, 10^–5 Molar; read-out: Percent growth inhibition
In short: as §1

Compound	inhibition at 10 µM (MOLT-4) [%]	inhibition at 10 µM (786-0) [%]	inhibition at 10 µM (CAKI-1) [%]	inhibition at 10 µM (CCRF-CEM) [%]	inhibition at 10 µM (KM12) [%]	inhibition at 10 µM (LOX IMVI) [%]	inhibition at 10 µM (M14) [%]	inhibition at 10 µM (MCF7) [%]	inhibition at 10 µM (MDA-MB-468) [%]	inhibition at 10 µM (NCI-H322M) [%]	inhibition at 10 µM (NCI-H460) [%]	inhibition at 10 µM (NCI-H522) [%]	inhibition at 10 µM (RXF 393) [%]	inhibition at 10 µM (SF-268) [%]	inhibition at 10 µM (SF-539) [%]	inhibition at 10 µM (SNB-75) [%]	inhibition at 10 µM (SW-620) [%]	inhibition at 10 µM (T-47D) [%]	inhibition at 10 µM (UACC-62) [%]	inhibition at 10 µM (UO-31) [%]	further results
CCn1cc(C(=O)NN=Cc2cccs2)c(=O)c2cc(F)c(N3CCNC(C)C3)c(F)c21 (stereo not shown) [Compound 3e, 1-Ethyl-6,8-difluoro-7-(3-methylpiperazin-1-yl)-4-oxo-N'-(thiophen-2-ylmethylene)-1,4-dihydroquinoline-3-carbohydrazide]	24.9	32.2	53.5	32.8	16.5	184	50.6	177	44.9	15.9	76.4	28.9	83.8	20.9	15.8	11.5	117	22.2	3.47	33.2	inhibition at 10 µM (HOP-62): 27.6%; inhibition at 10 µM (SK-OV-3): 9.74%
CCn1cc(C(=O)NN=Cc2cccnc2)c(=O)c2cc(F)c(N3CCNC(C)C3)c(F)c21 (stereo not shown) [Compound 3d, 1-Ethyl-6,8-difluoro-7-(3-methylpiperazin-1-yl)-4-oxo-N'-(pyridin-3-ylmethylene)-1,4-dihydroquinoline-3-carbohydrazide]	65.6	54.1	67.8	54.3	20.7	82	10.3	80.9	69.3	41.9	63	61.5	40.7	63	68.2	41.1	73.9	52.6	48.6	12.5	inhibition at 10 µM (A498): 40.3%; inhibition at 10 µM (HOP-62): 40.6%; inhibition at 10 µM (SK-OV-3): 16.2%; melting point: 241 to 243 °C
CCn1cc(C(=O)O)c(=O)c2cc(F)c(N3CCN(CC(=O)Nc4ccc(Cl)cc4)C(C)C3)c(F)c21 (stereo not shown) [Compound 5b, 7-(4-(2-((4-Chlorophenyl)amino)-2-oxoethyl)-3-methylpiperazin-1-yl)-1-ethyl-6,8-difluoro-4-oxo-1,4-dihydroquinoline-3-carboxylic acid]	1		13.7	2.48	3.94	9.13	2.06	10.6	7.4	13.8	9.4	8.89	0.61	6.49	4.4	17.7	1.08	11.2	40.8	31.4	inhibition at 10 µM (A498): 27.1%; inhibition at 10 µM (SK-OV-3): 9.6%; melting point: 218 to 220 °C
CCn1cc(C(=O)NN=Cc2ccccc2)c(=O)c2cc(F)c(N3CCNC(C)C3)c(F)c21 (stereo not shown) [Compound 3a, N'-Benzylidene-1-ethyl-6,8-difluoro-7-(3-methylpiperazin-1-yl)-4-oxo-1,4-dihydroquinoline-3-carbohydrazide]	125	167	54.2	152	189	187	150	184	69.6	47.5	173	175	161	61.1	187	7.18	181	36.4	128	52.5	inhibition at 10 µM (A498): 0.4%; inhibition at 10 µM (HOP-62): 31.4%
CCn1cc(C(=O)NN=Cc2cccc(F)c2)c(=O)c2cc(F)c(N3CCNC(C)C3)c(F)c21 (stereo not shown) [Compound 3b, 1-Ethyl-6,8-difluoro-N′-(3-fluorobenzylidene)-7-(3-methylpiperazin-1-yl)-4-oxo-1,4-dihydroquinoline-3-carbohydrazide]	126	140	33.3	147	127	191	107	184	28.4	16.6	179	130	122	60.6	105	9.9	185	27.7	35.2	79.4	inhibition at 10 µM (A498): 0.84%; inhibition at 10 µM (HOP-62): 13.5%
